From patent US8044042B2, “Thienotriazolodiazepine compound and medicinal use thereof” (Mitsubishi Tanabe Pharma Corporation, priority 2005, dated 2011) come the findings set out here.

Assay [1] relates to CD28-dependent T cell growth. Briefly: Mouse T cell proliferation stimulated with anti-CD28 antibody and PMA (tritiumthymidine uptake). It is filed as cell-based. Conditions: for IC50: T-cell, BALB/c mouse T cells, 10 ng/mL PMA and 250 ng/mL anti-CD28 antibody, tritiumthymidine uptake, read-out: CD28-dependent T cell growth suppressive action (IC50); for CD28-dependent T cell growth suppressive action (in words): mouse T cells stimulated with PMA and anti-CD28 antibody. The procedure:
The spleen was aseptically isolated from 6-7-week-old male BALB/c mice (CHARLES RIVER LABORATORIES JAPAN, INC.), and splenocyte suspension was prepared using RPMI1640 medium (manufactured by Sigma-Aldrich Ltd.). After hemolysis by a hypotonic treatment using a mixed solution of 0.83% aqueous ammonium chloride and Tris-HCl buffer (pH 7.65) at 9:1, a T cell concentrated fraction was obtained using a T cell concentrated column (manufactured by R&D systems). A cell suspension prepared using RPMI1640 medium containing 10% fetal calf serum (FCS, manufactured by Sigma-Aldrich Ltd.) was added to a flat-bottomed 96 well microtest plate (manufactured by Becton, Dickinson and Company) at 5×10^5 cells/well. Furthermore, a test compound diluted with a medium to the final concentration of 1-10000 nmol/L, 10 ng/mL PMA (manufactured by Sigma-Aldrich Ltd.) and 250 ng/mL anti-CD28 antibody (manufactured by BD pharmingen) were added, and the mixture was cultured under the conditions of 37° C., 5% carbon dioxide, 95% air for 20 hr. After the completion of culture, tritiumthymidine (specific activity: […], manufactured by MP Biochemicals) was added at 18.5 kBq/well, and the mixture was further cultured for 4 hr. Then, the cells were recovered in a glass fiber filter using a cell harvester (manufactured by Molecular Devices Corp.), the radioactivity taken into the cells was measured using a plate scintillation counter (microbeta 1460, manufactured by PerkinElmer), based on which the mouse T cell growth induced by stimulation with PMA and anti-CD28 antibody was measured. To be specific, suppressing rate (%)=(1−(radioactivity (cpm) of well added with test compound)/(radioactivity (cpm) of well without addition of test compound))×100 was calculated from the average amount of tritiumthymidine uptake (cpm) of T cells in each well added with various concentrations of test compound. In addition, based on the dose response curve obtained by plotting the average tritiumthymidine uptake amount (cpm) or suppressing rate on the vertical axis and the concentration on the transverse axis, the concentration of the compound (IC50) suppressing the value to 50% of that of the control group was determined by nonlinear regression.

Assay [2] deals with TYPE II Collagen-Induced Arthritis in DBA/1J Mouse. Nature of the assay: Type II collagen-induced arthritis in DBA/1J mouse. It is filed as in vivo. The note with it: 840 h. The method, then:
Bovine Type II collagen (purchased from collagen technical workshop) (100-200 μg) was mixed with complete Freund's adjuvant (manufactured by Sigma-Aldrich Ltd.) containing killed tuberculosis H37Ra. Using the resulting emulsion, 6 to 7-week-old male DBA/1J mice (CHARLES RIVER LABORATORIES JAPAN, INC.) were subcutaneously immunized at the tail root twice at 3 week intervals, whereby arthritis was developed. A test compound was suspended or dissolved in 0.5% carboxymethylcellulose (manufactured by Sigma-Aldrich Ltd.), and repetitively administered orally at a dose of 0.1-30 mg/kg body weight using an oral gavage needle for 2 weeks from the day of booster. As to this model, the symptoms of arthritis of four limbs were evaluated based on the following judgment criteria using the scores of from 0 to 4. The arthritis score of each mouse was shown by the total of the scores of four limbs (maximum: 16 points).
As regards the arthritis score, each group (n=5-6) was evaluated using an average value and mean error, with a group administered only with a vehicle being control, and Mann-Whitney U test was used for statistical analysis, wherein p value of 0.05 or below was determined to be significant. In the following, the suppressive action of the compound of the present invention on mouse collagen induced arthritis is shown by the suppressing rate (%) (1−(average arthritis score of compound administration group)/(average arthritis score of control group)×100) calculated from the average arthritis score at 35 days after the primary immunization.

Assay [3] concerns Lupus Nephritis in MRL/MpJ-lpr/lpr Mouse. Nature of the assay: Lupus nephritis in spontaneous systemic lupus erythematosus model MRL/MpJ-lpr/lpr mouse. It is filed as in vivo. Conditions: for urine protein score (mean ± SE): 4 weeks after administration, medium group 2.8 ± 0.2, P <0.05. The method, then:
The compound of the present invention or a pharmaceutically acceptable salt thereof was suspended or dissolved in 0.5% carboxymethylcellulose, and repetitively administered orally to male MRL/MpJ-lpr/lpr mice at 16 weeks after birth (CHARLES RIVER LABORATORIES JAPAN, INC.), that had developed lupus nephritis, at a dose of 1 and 3 mg/kg body weight for 4 weeks using an oral gavage needle. During the dosing period, urine-protein level was scored once a week using Ames urine test paper (Albustix (registered trademark), Bayer, Ltd.•Sankyo Corp.). As regards the urine protein levels, each group (n=10) was evaluated using an average value and mean error, with a group administered only with a vehicle being control, and Dunnett's test was used for statistical analysis, wherein p value of 0.05 or below was determined to be significant.

The test system of assay [4] is Biphasic Auricular Edema in Egg Albumin-Induced Mouse. Nature of the assay: Egg albumin-induced mouse biphasic auricular edema. It is filed as in vivo. The procedure:
Using saline (0.5 ml) containing egg albumin (10 μg, manufactured by Sigma-Aldrich Ltd.) and 1 mg of aluminum hydroxide gel, 6 to 7-week-old male BALB/c mice (CHARLES RIVER LABORATORIES JAPAN, INC.) were intraperitoneally immunized. Two weeks later, egg albumin (1.25 μg) was intradermally injected into the auricle of the mice for challenge, whereby biphasic auricular edema was induced 1 hr and 24 hr after the challenge. The compound of the present invention or a pharmaceutically acceptable salt thereof was suspended or dissolved in 0.5% carboxymethylcellulose, and repetitively administered orally at a dose of 0.01-30 mg/kg body weight for 3 days, from 2 days before the antigen challenge to the day of challenge, using an oral gavage needle. As for this model, the thickness of the auricle of the mouse was measured using a dial gauge (manufactured by Ozaki MFG. Co. Ltd.) and used as an index of auricular edema. As regards the thickness of the auricle, each group (n=8) was evaluated using an average value and mean error, with a group administered only with a vehicle being control, and t-test was used for statistical analysis, wherein p value of 0.05 or below was determined to be significant.

The test system of assay [5] is Mouse Graft-Versus-Host Reaction (GvHR). Nature of the assay: Mouse graft-versus-host reaction (GvHR). It is filed as in vivo. Conditions: 30 mg/kg oral for 28 days from splenocyte injection; P <0.05 vs vehicle. The procedure:
Cyclophosphamide (manufactured by Shionogi & Co., Ltd.) is administered to male BDF1 recipient mouse (8-week-old, CHARLES RIVER LABORATORIES JAPAN, INC.) at a dose of 300 mg/kg from the tail vein as a pretreatment at 24 hr prior to injection of spleen cells. The spleen was aseptically isolated from male C57BL/6 donor mouse (8-week-old, CHARLES RIVER LABORATORIES JAPAN, INC.), minced in RPMI1640 medium (manufactured by Sigma-Aldrich Ltd.), and passed through a stainless mesh to give a splenocyte single cell suspension. After removal of red blood cells by a hypotonic treatment using a mixed solution of 0.83% aqueous ammonium chloride and Tris-HCl buffer (pH 7.65) at 9:1, splenocytes were washed and suspended in physiological saline to give a splenocyte suspension. The prepared cells were injected at 1×10^8 cells/mouse into the tail vein to induce acute GvHR. The compound of the present invention or a pharmaceutically acceptable salt thereof was suspended or dissolved in 0.5% carboxymethylcellulose, and repetitively administered orally at a dose of 3-30 mg/kg body weight for 28 days from the day of splenocyte injection, and the influence on the survival time was evaluated. After induction of acute GvHR, the survival of each individual was determined every day, and the day of confirmed death was taken as the survival time of each individual. As for the survival time, log-rank test analysis was performed using the group administered with vehicle alone as a control, and the multiplicity was adjusted by the Holm's method, wherein p value of 0.05 or below was determined to be significant.

Assay [6] concerns Mouse Skin Allograft Survival. Briefly: Mouse skin allograft survival. In kind it is in vivo. The note with it: for median survival time of skin graft: vehicle 9.5. The procedure: A tail skin graft (4×7 mm) of 5- to 7-week-old male AKR mouse (KYUDO Co. Ltd. was) was transplanted on the back of 5- to 7-week-old male C3H mouse (CHARLES RIVER LABORATORIES JAPAN, INC.), covered with aseptic gauze and bandaged. The bandage was removed at day 6 from the transplantation, and the graft was observed every day up to rejection. The rejection of the skin graft was determined to be the time point when 90% or more of the epithelium of the graft turned brown due to necrosis. The number of days from the transplantation to the rejection was taken as the survival time of the graft. The compound of the present invention or a pharmaceutically acceptable salt thereof was suspended or dissolved in 0.5% carboxymethylcellulose, and repetitively administered orally at a dose of 0.3-100 mg/kg body weight once a day for 14 days from the day of transplantation. As for the graft survival time, generalized Wilcoxon test analysis was performed using the group administered with vehicle alone as a control, and the multiplicity was adjusted by the Holm's method, wherein p value of 0.05 or below was determined to be significant.

Each structure is given as a SMILES string. Read-outs that look alike come from different tables or passages of the source.

Turning to `COC(=O)C[C@@H]1N=C(c2ccc(Cl)cc2)c2c(sc(C)c2C)-n2c(C)nnc21` [Example 1, Methyl (S)-{4-(4-chlorophenyl)-2,3,9-trimethyl-6H-thieno[3,2-f][1,2,4]triazolo[4,3-a][1,4]diazepin-6-yl}acetate], in assay [1], the IC50 worked out at 0.038 µM. For the same molecule, the “CD28-dependent T cell growth suppressive action (in words)” value in assay [1] is listed as “have a CD28-dependent T cell growth suppressive action”. In addition, the inhibition in vivo at 3 mg/kg in assay [2] (po, read-out: suppressing rate (%) of arthritis score) amounted to 66.1%. The “urine protein score (mean ± SE)” value amounted to 1.8 ± 0.3 in assay [3] (1 mg/kg oral) and 1.6 ± 0.2 in assay [3] (3 mg/kg oral). Further, in assay [3] (at not less than 1 mg/kg, oral for 4 weeks, compared to the control group), the “effect on urine protein score (in words)” value is on record as “significantly decreased the urine protein score”.

Consider `COC(=O)C[C@@H]1N=C(c2ccc(-c3ccc(OC)cc3)cc2)c2c(sc(CO)c2C)-n2c(C)nnc21` [Example 234, Methyl (S)-{2-hydroxymethyl-4-(4′-methoxybiphenyl-4-yl)-3,9-dimethyl-6H-thieno[3,2-f][1,2,4]triazolo[4,3-a][1,4]diazepin-6-yl}acetate], for which the IC50 in assay [1] worked out at 0.097 µM. Also, the “CD28-dependent T cell growth suppressive action (in words)” value in assay [1] was “have a CD28-dependent T cell growth suppressive action”. The inhibition in vivo at 3 mg/kg in assay [2] (3 mg/kg oral, 2 weeks from booster, average arthritis score at 35 days after primary immunization, P <0.05, read-out: suppressing rate (%) of arthritis score) turned out to be 53.6%. In assay [4] (10 mg/kg oral for 3 days, 24 hr later, P <0.05), the “suppressing rate (%) of auricular edema” value was 35.8%. Further, in assay [4] (10 mg/kg, 24 hr after induction with egg albumin), the “suppressive action on edema (in words)” value is listed as “significant suppressive action on edema”. The median survival time in assay [5] is 32 days. In addition, the “median survival time of skin graft” value is 11 days in assay [6] (30 mg/kg oral once a day for 14 days, P 0.13) and 14 days in assay [6] (100 mg/kg oral once a day for 14 days, P <0.05). In addition, the “effect on graft survival time (in words)” value in assay [6] (100 mg/kg) is recorded as “significantly prolonged the graft survival time”.
